Measured values reported in publication PMC9214036, “Design and Synthesis of Novel PRMT1 Inhibitors and Investigation of Their Effects on the Migration of Cancer Cell” (Frontiers in Chemistry, 2022).
Where a name gives a salt, the structure may show the parent alone.

Legend:
[1] = CCK-8 cell viability assay in A549 cells; format: cell-based, human; settings: human, A549 cells treated for 48 h, read-out: IC50 (CC50), A549 cell viability
Protocol: (§1) To determine the effects of WCJ-394 on the inhibition of TGF-β1-induced epithelial–mesenchymal transition (EMT) in A549 cells, the characterized proteins were detected using the Western blotting assay.
(§2) Cells were seeded into a 96-well plate; after 12 h of attachment, the cells were treated with different concentrations (0–1,600 μΜ) of WCJ-394 for 48 h. Cell viability was assessed by a Cell Counting Kit-8 (CCK-8; MCE) according to the manufacturer’s instructions. Briefly, after treatment, the CCK-8 solution was added to the culture medium and incubated at 37°C for 1 h. Cell viability was assessed by measuring the absorbance at 450 nm. In the subsequent luciferase assays, the effects of WCJ-394 on the cell viability were examined in parallel to exclude the compound-induced cell death.

[2] = system: A549 cells; assay: CCK-8 cell viability assay in A549 cells; format: cell-based, human; settings: concentrations of 0–50 μM
Protocol: as §1, §2

[3] = target: PRMT8 (Homo sapiens, UniProt Q9NR22); assay: AlphaLISA selectivity assay, PRMT8; format: biochemical; settings: read-out: IC50 against PRMT8
Protocol: (§3) […]. […] Next, 5 μl of enzyme solution was transferred to the assay plate and incubated at room temperature for 15 min. Then, 5 μl of substrate solution was added to each well to start the reaction. After incubation at room temperature for 30 min (PRMT4,6) and 60 min (PRMT3,8), 15 μl of acceptor and donor bead mix solution were added to the assay plate and incubated at room temperature for 60 min with subdued light. The signal was collected with Envision or EnSpire with Alpha mode. The data were analyzed in GraphPad Prism 5 to obtain IC50 values.

[4] = target: PRMT6 (Homo sapiens, UniProt Q96LA8); assay: AlphaLISA selectivity assay, PRMT6; format: biochemical; settings: read-out: IC50 against PRMT6
Protocol: as §3

[5] = target: PRMT1 (Homo sapiens, UniProt Q99873); assay: Radioactive PRMT1 methylation inhibition assay ([3H]-SAM, biotinylated histone H4 peptide); format: biochemical
Protocol: A series of 2,5-substituted furan and 2,4-substituted thiazole derivatives were synthesized and screened for their inhibitory effects on PRMT1 by using the radioactive PRMT1 methylation inhibition assay, which measured the amount of methyl groups that transferred from [^3H]-SAM to a biotinylated histone H4 peptide [ac-[…](Biotin)] (Tables 1–3).
The enzyme inhibitory activities and selectivity were measured by the radioisotope assay and AlphaLISA assay in ShangHai Chempartner Co., Ltd., according to the standard protocol. […] After 250 nL of compound solutions were added to the assay plate, 15 μl of PRMT1 enzyme solution or ×1 assay buffer for negative control was transferred to each well of prepared compound stock plates and the whole system (the final concentration of PRMT1 was 0.5 nM or 2 nM in the system) was incubated for 15 min at room temperature. […] Afterward, the reaction was stopped with the addition of 5 μl cold SAM solution to each well. Then, 25 μl volume per well was transferred to a Flashplate from the assay plate and incubated for a minimum of 1 h at room temperature. Finally, the Flashplate was washed with dH2O and 0.1% Tween-20 three times and then the reading plate in Microbeta using the program ^3H-Flashplate. The data were analyzed in GraphPad Prism 5 to obtain IC50 values.

[6] = system: A549 cells; assay: Scratch wound healing assay, TGF-β1-induced A549 cell migration; format: cell-based, human
Protocol: In the scratch wound healing assay, the percentages of scratch widths at 24 and 48 h compared to that of 0 h were used to denote the rate of A549 cell migration. As shown in Figures 6A–C, the TGF-β1 treatment promoted the scratched wound closure.
The monolayer cell was scratched with a new 10 μl pipette tip across the center of the well, and the detached cells were gently rinsed with PBS buffer. […] The scratch was photographed through a microscope at ×100 magnification at 0, 24, and 48 h. Then, the scratch width was quantified by ImageJ software and the rate of wound closure was calculated with the final values expressed as a migration percentage of the scratch width relative to 0 h.

[7] = system: A549 cells; assay: Western blot of TGF-β1-induced mesenchymal markers (EMT) in A549 cells; format: cell-based, human; settings: TGF-β1 48 h, WCJ-394 pretreatment 5, 10, 20 μM
Protocol: (§4) A549 cells in the logarithmic growth phase were seeded into a 6-well cell culture plate at a density of 3 × 10^5 cells per well.
(§5) A549 cells were lysed in RIPA buffer, which contains protease and phosphatase inhibitors, and then harvested in Eppendorf tubes for centrifugation (14,000 rpm for 10 min at 4°C) to remove cell debris. The supernatants were transferred into new Eppendorf tubes, and the protein concentration was quantified with a BCA kit (Thermo Fisher). The protein samples were separated by 10% SDS-PAGE and transferred onto polyvinylidene difluoride (PVDF) membranes. The membranes were blocked for 1 h at room temperature in 5% BSA and then incubated with the corresponding primary antibodies overnight at 4°C and then incubated with secondary antibodies for another 1 h at room temperature. After being washed with TBST buffer three times, the PVDF membranes were visualized with ECL reagents (Millipore) and the Western blot results were further analyzed by ImageJ software (National Institutes of Health).

[8] = system: TGF-β signaling; assay: cells; settings: 18 h, read-out: IC50, inhibition of TGF-β signaling
Protocol: The medium was changed into DMEM with 0.1% FBS. […] The final concentration of DMSO should be maintained at 0.1%. After incubation, the medium was removed and the cells were rinsed with PBS to remove any residual compound. One hundred microliters of the Steady-Glo® Luciferase Assay reagent (Promega) was added to each well, and the cells were lysed in the dark for 10 min on a horizontal shaker. The luciferase activity was measured in a luminometer.

[9] = system: A549 cells; assay: Western blot of PRMT-related proteins (SDMA, ADMA, DDAH, PRMT1) in A549 cells; format: cell-based, human; settings: WCJ-394 5, 10, 20 μM, 48 h
Protocol: as §4, §5

[10] = target: PRMT3 (Homo sapiens, UniProt O60678); assay: AlphaLISA selectivity assay, PRMT3; format: biochemical; settings: read-out: IC50 against PRMT3
Protocol: as §3

[11] = system: A549 cells; assay: Transwell migration assay, TGF-β1-induced A549 cell migration; format: cell-based, human; settings: TGF-β1, WCJ-394 pretreatment 5, 10, 20 μM
Protocol: A549 cells in the logarithmic growth phase were resuspended with a serum-free DMEM medium and seeded into the 8-μm transwell filter inserts at a density of 8 × 10^3 cells per well; meanwhile, 600 μl medium containing 10% FBS was added into the lower chambers of the 24-well cell culture plate. […] After incubation, the cells in the upper chambers were carefully removed with a cotton swab, while the cells that had traversed to the bottom side of the membrane were fixed with 4% paraformaldehyde for 15 min and stained with 0.1% crystal violet for 20 min. The chambers were washed with PBS buffer to remove extra crystal violet. Three fields of view were randomly taken and photographed from the central and surrounding parts of each membrane under a microscope at ×100 magnification, and cell number was calculated by ImageJ software.

[12] = system: MLEC; assay: MLEC cell viability (CCK-8) under the luciferase assay condition; format: cell-based, mink; settings: concentration up to 100 μM, same condition as luciferase assay
Protocol: as §2
The luciferase activity was measured in a luminometer.

[13] = target: T1, PRMT4 (Homo sapiens, UniProt Q86X55); assay: AlphaLISA selectivity assay, PRMT4; format: biochemical; settings: read-out: IC50 against PRMT4
T1 sequence (Q86X55 1-608): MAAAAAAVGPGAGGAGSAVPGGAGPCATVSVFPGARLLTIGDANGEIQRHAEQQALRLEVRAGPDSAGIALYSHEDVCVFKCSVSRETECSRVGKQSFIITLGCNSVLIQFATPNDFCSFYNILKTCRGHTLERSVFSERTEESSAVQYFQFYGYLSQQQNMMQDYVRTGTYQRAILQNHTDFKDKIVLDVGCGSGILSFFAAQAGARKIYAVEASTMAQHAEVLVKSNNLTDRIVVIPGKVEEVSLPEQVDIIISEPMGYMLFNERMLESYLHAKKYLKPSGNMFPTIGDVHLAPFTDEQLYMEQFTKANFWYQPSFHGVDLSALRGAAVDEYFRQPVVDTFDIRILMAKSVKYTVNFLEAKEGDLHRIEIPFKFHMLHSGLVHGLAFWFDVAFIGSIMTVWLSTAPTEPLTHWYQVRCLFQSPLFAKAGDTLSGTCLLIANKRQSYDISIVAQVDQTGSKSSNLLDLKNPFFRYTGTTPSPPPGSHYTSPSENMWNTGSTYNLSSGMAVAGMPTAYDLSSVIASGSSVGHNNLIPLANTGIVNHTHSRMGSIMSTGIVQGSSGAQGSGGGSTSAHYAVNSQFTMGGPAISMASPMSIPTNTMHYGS
Protocol: as §3

Chain of PRMT1 (Q99873 whole entry): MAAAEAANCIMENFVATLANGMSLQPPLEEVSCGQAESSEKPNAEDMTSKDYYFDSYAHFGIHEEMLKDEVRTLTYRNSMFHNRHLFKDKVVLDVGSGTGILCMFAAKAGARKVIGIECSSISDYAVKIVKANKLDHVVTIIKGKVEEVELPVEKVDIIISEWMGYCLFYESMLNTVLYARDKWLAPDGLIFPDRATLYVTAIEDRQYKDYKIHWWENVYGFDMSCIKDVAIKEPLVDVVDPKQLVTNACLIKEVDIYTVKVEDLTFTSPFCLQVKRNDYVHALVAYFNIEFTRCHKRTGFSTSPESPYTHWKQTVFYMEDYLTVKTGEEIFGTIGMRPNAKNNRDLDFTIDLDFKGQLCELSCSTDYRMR
Chain of PRMT8 (Q9NR22 whole entry): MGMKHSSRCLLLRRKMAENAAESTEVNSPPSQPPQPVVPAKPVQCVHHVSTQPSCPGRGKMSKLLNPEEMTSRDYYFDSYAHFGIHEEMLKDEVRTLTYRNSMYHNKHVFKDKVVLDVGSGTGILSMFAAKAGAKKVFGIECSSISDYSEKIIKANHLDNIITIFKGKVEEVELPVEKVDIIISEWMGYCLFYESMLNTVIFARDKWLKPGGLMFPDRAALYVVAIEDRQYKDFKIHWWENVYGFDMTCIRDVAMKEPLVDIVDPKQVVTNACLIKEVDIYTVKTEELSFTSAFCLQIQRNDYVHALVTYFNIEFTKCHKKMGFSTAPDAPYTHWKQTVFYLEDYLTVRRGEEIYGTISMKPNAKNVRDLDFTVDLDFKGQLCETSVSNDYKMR
Chain of PRMT3 (O60678 whole entry): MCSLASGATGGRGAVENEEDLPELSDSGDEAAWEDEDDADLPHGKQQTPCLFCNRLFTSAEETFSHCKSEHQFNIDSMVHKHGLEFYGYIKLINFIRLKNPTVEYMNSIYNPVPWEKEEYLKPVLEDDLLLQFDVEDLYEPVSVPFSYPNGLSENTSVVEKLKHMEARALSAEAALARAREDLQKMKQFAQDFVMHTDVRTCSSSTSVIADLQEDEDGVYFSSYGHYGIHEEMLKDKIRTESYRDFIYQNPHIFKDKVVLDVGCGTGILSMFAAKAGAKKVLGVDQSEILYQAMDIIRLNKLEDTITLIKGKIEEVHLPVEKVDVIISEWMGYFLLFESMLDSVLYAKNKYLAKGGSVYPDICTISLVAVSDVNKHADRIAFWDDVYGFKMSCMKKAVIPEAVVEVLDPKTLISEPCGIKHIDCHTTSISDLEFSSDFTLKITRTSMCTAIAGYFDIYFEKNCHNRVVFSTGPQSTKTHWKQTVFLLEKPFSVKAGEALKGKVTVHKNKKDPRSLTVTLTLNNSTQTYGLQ
Chain of PRMT6 (Q96LA8 whole entry): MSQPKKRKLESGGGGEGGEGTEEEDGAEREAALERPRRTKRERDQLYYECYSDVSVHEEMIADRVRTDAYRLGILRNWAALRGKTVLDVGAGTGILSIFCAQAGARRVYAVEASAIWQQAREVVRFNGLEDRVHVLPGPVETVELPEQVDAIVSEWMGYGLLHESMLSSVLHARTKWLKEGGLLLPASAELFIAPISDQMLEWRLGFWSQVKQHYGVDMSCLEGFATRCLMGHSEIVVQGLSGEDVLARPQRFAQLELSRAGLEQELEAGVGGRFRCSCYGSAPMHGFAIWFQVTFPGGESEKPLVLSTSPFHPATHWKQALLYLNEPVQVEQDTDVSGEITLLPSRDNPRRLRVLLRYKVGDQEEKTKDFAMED

CN(CCN)Cc1csc(-c2ccc(C(=N)N)nc2)n1 [Compound 1r, N′-[2-(2-Aminocarboximido-5-pyridyl)thiazol-4-yl-methyl]-N′-methylethylenediamine Hydrochloride]
IC50 at 48 h [1]: 584 µM | cytotoxicity in A549 cells [2]: did not result in any cytotoxicity | IC50 [3]: 5.71 ± 0.05 µM | IC50 [4]: 29.7 ± 2.03 µM | PRMT1 IC50 compared with SAH ([5]; fold weaker than SAH): about two times weaker than SAH | IC50 ([5]; radioactive methylation assay, read-out: IC50 (μM) against PRMT1): 1.21 ± 0.11 µM | inhibition at 10 µM ([5]; read-out: % Inhibition of PRMT1 (at 10 μM)): 98.5 ± 0.04% | TGF-β1-induced cell migration (scratched wound closure) at 24 h ([6]; WCJ-394 pretreatment at 10 or 20 μM, 24 h): significantly inhibited | TGF-β1-induced cell migration (scratched wound closure) at 48 h ([6]; WCJ-394 pretreatment, 48 h): retardation effect of WCJ-394 on cell migration was further detected | expression of EMT-related proteins (fibronectin, N-cadherin, MMP-2, α-SMA) [7]: decreased (p < 0.05) by the pretreatment of WCJ-394 in a concentration-dependent manner | IC50 [8]: 17.7 µM | expression level of ADMA [9]: significantly reduced in a concentration-dependent manner | expression of DDAH [9]: significantly decreased in a concentration-dependent manner | expression of PRMT1 [9]: not significantly affected | expression of SDMA [9]: not affected | IC50 [10]: 57.6 ± 0.62 µM | number of migrated cells (transwell) [11]: significantly decreased the number of migrated cells in a concentration-dependent manner | cytotoxicity in MLEC (cell viability) [12]: without showing significant cytotoxicity | IC50 [13]: 1.64 ± 0.17 µM
